Calls of active or inactive are those of the source. The rule behind the calls is not given here.
How the values were obtained:
[1] = Stability of the compound assessed as intramolecular cyclization/decomposition measured over 12 months; type: physicochemical; details: 8766 h
[2] = Stability of the compound in HCl-MeOH/HCl-1,4-dioxane/TFA-DCM assessed as release of gabapentin, S-nucleophile, 2-aza-spiro[4,5]decan-3-one; type: physicochemical; details: buffer
[3] = test system: Cynomolgus monkey; assay: Oral bioavailability in cynomolgus monkey assessed as gabapentin at 36 mg/kg; type: ADME, organism-based, Macaca fascicularis; details: in vivo
[4] = test system: Mus musculus; assay: Toxicity in ip dosed SKH1-hrhr mouse assessed as change in reward licking events measured up to 3 hrs; type: organism-based; details: in vivo
[5] = test system: Mus musculus; assay: Toxicity in ip dosed SKH1-hrhr mouse assessed as mortality measured up to 3 hrs; type: organism-based; details: in vivo
[6] = Stability of the compound in HCl-MeOH/HCl-1,4-dioxane/TFA-DCM assessed as release of gabapentin, O-nucleophile, 2-aza-spiro[4,5]decan-3-one; type: physicochemical; details: buffer
[7] = Stability of the compound assessed as cyclization into tert-butyl 3-oxo-2-azaspiro[4.5]decane-2-carboxylate at room temperature measured over 12 months; type: physicochemical; details: 8766 h
[8] = test system: Mus musculus; assay: Antinociceptive activity in ip dosed capsaicin-induced SKH1-hrhr mouse assessed change in reward licking events measured 30 mins post injection; type: functional, organism-based
[9] = test system: Mus musculus; assay: Toxicity in ip dosed capasaicin-induced SKH1-hrhr mouse assessed as mortality measured up to 3 hrs; type: organism-based; details: in vivo
[10] = Oral bioavailability in cynomolgus monkey at 39 mg/kg; type: ADME, organism-based, Macaca fascicularis; details: in vivo
[11] = Toxicity in mouse; type: organism-based; details: in vivo

SMILES: C[C@H](NC(=O)OC(C)(C)C)C(=O)N[C@@H](Cc1ccccc1)C(=O)NCC1(CC(=O)O)CCCCC1
- Stability [1]: Stable

SMILES: CC(C)(C)OC(=O)NCC1(CC(=O)Sc2ccccc2)CCCCC1
- Stability [2]: Unstable

SMILES: CC(OC(=O)NCC1(CC(=O)O)CCCCC1)OC(=O)C(C)C (stereo not given) [GABAPENTIN ENACARBIL]
- F [3]: 84%

SMILES: Cl.NCC1(CC(=O)NCc2ccccc2)CCCCC1
- Activity [4]: Non-toxic
- Activity [5]: Non-toxic

SMILES: CC(C)[C@H](NC(=O)OCc1ccccc1)C(=O)NCC1(CC(=O)O)CCCCC1
- Stability [1]: Stable

SMILES: C[C@H](NC(=O)CN)C(=O)NCCC(=O)NCC1(CC(=O)O)CCCCC1
- Stability [1]: Stable

SMILES: CC(C)[C@H]1CC[C@H](C)C[C@@H]1OC(=O)CC1(CNC(=O)OC(C)(C)C)CCCCC1
- Stability [6]: Unstable
- Stability [7]: Unstable

SMILES: CC(C)[C@H](N)C(=O)NCC1(CC(=O)O)CCCCC1
- Stability [1]: Stable

SMILES: COC(=O)[C@H](CSC(=O)CC1(CNC(=O)OC(C)(C)C)CCCCC1)NC(=O)[C@H](Cc1ccccc1)NC(=O)OCc1ccccc1
- Stability [2]: Unstable

SMILES: C[C@H](N)C(=O)NCC1(CC(=O)O)CCCCC1
- Activity [8]: Active
- Stability [1]: Stable
- Activity [4]: Non-toxic
- Activity [5]: Non-toxic
- Activity [9]: Non-toxic

SMILES: C[C@H](NC(=O)CNC(=O)OCc1ccccc1)C(=O)NCCC(=O)NCC1(CC(=O)O)CCCCC1
- Stability [1]: Stable

SMILES: C[C@H](NC(=O)OCc1ccccc1)C(=O)NCC1(CC(=O)O)CCCCC1
- Stability [1]: Stable

SMILES: NCC1(CC(=O)O)CCCCC1 [GABAPENTIN]
- bioavailability [10]: 25%
- Activity [4]: Non-toxic
- Activity [5]: Non-toxic
- LD50 [11]: > 8000 mg/kg

SMILES: CC(C)CCC[C@@H](C)[C@H]1CC[C@H]2[C@@H]3CC=C4C[C@@H](OC(=O)CC5(CNC(=O)OC(C)(C)C)CCCCC5)CC[C@]4(C)[C@H]3CC[C@]12C
- Stability [6]: Unstable

SMILES: CC(N)C(=O)NC(Cc1ccccc1)C(=O)NCC1(CC(=O)O)CCCCC1.Cl (racemic)
- Stability [1]: Stable

SMILES: O=C1CC2(CCCCC2)CN1
- LD50 [11]: 300 mg/kg
